Assay results reported in the NIST ThermoML archive (doi:10.1016/j.jct.2017.06.001).
Numbers after ± are expanded uncertainties.

Columns and labels:
[1] = 100 kPa, Liquid; for mass density: Vibrating tube method; for speed of sound: Frequency=5 MHz, Pulse-echo method
[2] = xn = mol fraction of the nth substance listed; details: 100 kPa, Liquid, x2 = 0; for mass density: Vibrating tube method; for speed of sound: Frequency=5 MHz, Pulse-echo method

OCCCCCO [1,5-pentanediol]
[1]
Details	mass density [kg/m3]	speed of sound [m/s]
278.15 K	998 ± 2.1	–
283.15 K	995 ± 2.1	–
288.15 K	992.2 ± 2.1	1616.4 ± 2.3
293.15 K	989.3 ± 2.1	1605 ± 2.3
298.15 K	986.5 ± 2.1	1593.8 ± 2.3
303.15 K	983.6 ± 2.1	1582.5 ± 2.3
308.15 K	980.7 ± 2.1	1571.3 ± 2.3
313.15 K	977.8 ± 2.1	1560.2 ± 2.3
318.15 K	974.9 ± 2.1	1549 ± 2.3
323.15 K	971.9 ± 2.1	–
328.15 K	969 ± 2.1	–
333.15 K	965.9 ± 2.1	–

O [water] + OCCCCCO
[2]
Details	mass density [kg/m3]	speed of sound [m/s]
278.15 K	999.97 ± 0.16	–
283.15 K	999.7 ± 0.16	–
308.15 K	–	1519.2 ± 1.1
313.15 K	–	1528.8 ± 1.2
318.15 K	–	1536.7 ± 1.2
323.15 K	988.03 ± 0.16	–
328.15 K	985.68 ± 0.16	–
333.15 K	983.19 ± 0.16	–
